Data: ChEMBL document CHEMBL3044870, “Effect of clomazone on various market classes of dry beans” (Crop Prot, 2007)

Assays:
Assay type in all cases: organism-based
Settings in all cases: in vivo, other
Phaseolus vulgaris [1] = assay: Phytotoxicity against Phaseolus vulgaris (otebo beans) assessed as visual crop injury at 2232 g a.i./ha applied pre-emergence 1 to 2 days post-planting measured on day 14 post-emergence relative to control
Phaseolus vulgaris [2] = assay: Phytotoxicity against Phaseolus vulgaris (cranberry beans) assessed as visual crop injury at 2232 g a.i./ha applied pre-emergence 1 to 2 days post-planting measured on day 14 post-emergence relative to control
Phaseolus vulgaris [3] = assay: Phytotoxicity against Phaseolus vulgaris (black beans) assessed as visual crop injury at 1116 g a.i./ha applied pre-emergence 1 to 2 days post-planting measured on day 14 post-emergence relative to control
Phaseolus vulgaris [4] = assay: Phytotoxicity against Phaseolus vulgaris (cranberry beans) assessed as yield at 1116 g a.i./ha applied pre-emergence 1 to 2 days post-planting measured on day 42 post-emergence (reference value: 3.1 tons/ha)
Phaseolus vulgaris [5] = assay: Phytotoxicity against Phaseolus vulgaris (black beans) assessed as yield at 1116 g a.i./ha applied pre-emergence 1 to 2 days post-planting measured on day 42 post-emergence (reference value: 3.6 tons/ha)
Phaseolus vulgaris [6] = assay: Phytotoxicity against Phaseolus vulgaris (black beans) assessed as shoot dry weight at 2232 g a.i./ha applied pre-emergence 1 to 2 days post-planting measured on day 42 post-emergence (reference value: 165 g/m)
Phaseolus vulgaris [7] = assay: Phytotoxicity against Phaseolus vulgaris (yellow eye beans) assessed as plant height at 1116 g a.i./ha applied pre-emergence 1 to 2 days post-planting measured on day 28 post-emergence (reference value: 38 cm)

For `CC1(C)CON(Cc2ccccc2Cl)C1=O` [CLOMAZONE], which Activity (Phaseolus vulgaris [1]) is on record?
The Activity was 11%.

And the Activity (Phaseolus vulgaris [2])?
The Activity was 14%.

What about the Activity (Phaseolus vulgaris [3]) of the same compound?
The Activity was 3%.

And the Crop_yield (Phaseolus vulgaris [4])?
Its Crop_yield is 3.2 tons/ha.

And the Crop_yield (Phaseolus vulgaris [5])?
The Crop_yield was 3.3 tons/ha.

And the Activity (Phaseolus vulgaris [6])?
Its Activity is 150 g/m.

And the Activity (Phaseolus vulgaris [7])?
The Activity was 36 cm.
